pIC50: −log10 of the molar value.
Biological target: T1, sodium-proton exchanger of subtype 3 (NHE3) (Homo sapiens, UniProt P48764)
T1 construct: expressed in transfected cells
T1 sequence (P48764 26-834): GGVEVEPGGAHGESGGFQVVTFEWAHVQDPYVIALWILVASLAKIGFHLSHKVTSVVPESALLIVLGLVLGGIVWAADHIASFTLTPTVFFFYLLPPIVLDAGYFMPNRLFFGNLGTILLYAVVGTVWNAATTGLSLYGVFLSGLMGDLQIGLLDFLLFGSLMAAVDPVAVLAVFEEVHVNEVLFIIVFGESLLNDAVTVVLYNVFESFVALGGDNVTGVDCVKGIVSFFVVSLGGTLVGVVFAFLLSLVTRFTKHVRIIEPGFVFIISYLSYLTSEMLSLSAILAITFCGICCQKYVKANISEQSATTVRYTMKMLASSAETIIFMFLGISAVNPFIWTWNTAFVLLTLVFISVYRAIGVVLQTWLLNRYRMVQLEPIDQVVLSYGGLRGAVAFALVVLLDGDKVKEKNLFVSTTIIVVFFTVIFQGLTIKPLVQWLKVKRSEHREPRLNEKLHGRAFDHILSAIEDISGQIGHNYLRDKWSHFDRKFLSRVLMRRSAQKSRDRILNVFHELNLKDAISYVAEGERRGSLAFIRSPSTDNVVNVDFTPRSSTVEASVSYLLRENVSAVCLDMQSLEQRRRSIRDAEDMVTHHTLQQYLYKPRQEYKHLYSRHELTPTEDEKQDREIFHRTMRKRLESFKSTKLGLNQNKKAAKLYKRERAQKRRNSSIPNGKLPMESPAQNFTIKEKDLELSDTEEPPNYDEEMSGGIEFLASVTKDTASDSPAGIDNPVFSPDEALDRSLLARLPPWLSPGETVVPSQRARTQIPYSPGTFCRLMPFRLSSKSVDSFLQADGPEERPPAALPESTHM
Test: Recovery of intracellular pH (pHi) after acidification in LAP1 cells stably expressing NHE3 (BCECF fluorescence, FLIPR)
Assay type: cell-based
Settings: LAP1 cells stably expressing NHE3; pH recovery after acidification; range 1 is % inhibition at 10 μM; read-out: Activity range (inhibitory effect on NHE3)

Structure (SMILES) | pIC50 | inhibition at 10 µM [%]
NCC1CCN([C@@H]2Cc3ccccc3[C@H]2Oc2ccc(Br)cc2-c2cc[nH]n2)CC1 (racemic) [Example 599, C-(1-{rac-trans-(1,2)-1-[4-bromo-2-(1H-pyrazol-3-yl)phenoxy]indan-2-yl}piperidin-4-yl)methylamine] | 5.00 to 6.00 | 
CC(=O)Nc1cccc(O[C@H]2c3ccccc3C[C@@H]2N2CCCCCC2)c1 (racemic) [Example 636, N-[3-(rac-trans-(1,2)-2-azepan-1-ylindan-1-yloxy)phenyl]acetamide] | > 6.00 | 
CS(=O)(=O)c1ccc(O[C@H]2c3ccccc3C[C@@H]2N2CCn3cnnc3C2)cc1 (racemic) [Example 590, 7-[rac-trans-(1,2)-1-(4-methanesulfonylphenoxy)indan-2-yl]-5,6,7,8-tetrahydro-[1,2,4]triazolo[4,3-a]pyrazine] |  | 20 to 50
CN(C1CCC1)[C@@H]1Cc2ccccc2[C@H]1Oc1ccc(S(C)(=O)=O)cc1 (racemic) [Example 734, Cyclobutyl-[rac-trans-(1,2)-1-(4-methanesulfonyl-phenoxy)-indan-2-yl]-methyl-amine] | 5.00 to 6.00 | 
Cc1ccc(O[C@@H]2c3ccccc3C[C@H]2N2CCC(CN)CC2)c(Br)c1 (racemic) [Example 603, C-{1-[rac-trans-(1,2)-1-(2-bromo-4-methylphenoxy)indan-2-yl]piperidin-4-yl}methylamine] | 5.00 to 6.00 | 
CN(C1CCCNC1)[C@@H]1Cc2ccccc2[C@H]1Oc1ccc(S(N)(=O)=O)c(Cl)c1Cl (mixture of isomers) [Example 360, 2,3-dichloro-4-[rac-trans-(1,2)-2-(methylpiperidin-3-ylamino)indan-1-yloxy]benzenesulfonamide] | 5.00 to 6.00 | 
NCCc1c[nH]c2ccc(O[C@H]3c4ccccc4CC[C@@H]3N3CCC[C@H](N)C3)cc12 (racemic) [Example 201, (S)-1-{rac-trans-(1,2)-1-[3-(2-aminoethyl)-1H-indol-5-yloxy]-1,2,3,4-tetrahydronaphthalen-2-yl}piperidin-3-ylamine] | 5.00 to 6.00 | 
NS(=O)(=O)c1ccc(O[C@H]2c3ccccc3C[C@@H]2N2CCCCC2)cc1 (racemic) [Example 465, 4-(rac-trans-(1,2)-2-piperidin-1-ylindan-1-yloxy)benzenesulfonamide] | > 6.00 | 
Cc1ccc(O[C@H]2c3ccccc3C[C@@H]2N2CCCC2)c(-c2c(C)noc2C)c1 [Example 408, 3,5-dimethyl-4-[5-methyl-2-(trans-(1S,2S)-2-pyrrolidin-1-ylindan-1-yloxy)phenyl]isoxazole] |  | 20 to 50
CC(=O)Nc1cccc(O[C@H]2c3ccccc3C[C@@H]2N2CC[C@@H](CO)C2)c1 (racemic) [Example 680, N-{3-[rac-trans-(1,2)-2-((R)-3-hydroxymethylpyrrolidin-1-yl)indan-1-yloxy]phenyl}acetamide] | 5.00 to 6.00 | 
c1ccc2c(c1)C[C@H](N1CCCC1)[C@H]2Oc1ccc(-c2nccs2)cc1 (racemic) [Example 364, 2-[4-(rac-trans-(1,2)-2-pyrrolidin-1-ylindan-1-yloxy)phenyl]thiazole] | 5.00 to 6.00 | 
CN(C)CCN(C)[C@H]1Cc2c(Cl)cc(Cl)cc2[C@@H]1Oc1ccc(S(C)(=O)=O)cc1 [Example 671, N-[trans-(1S,2S)-4,6-dichloro-1-(4-methanesulfonylphenoxy)indan-2-yl]-N,N′,N′-trimethyl-ethane-1,2-diamine] | > 6.00 | 

The remaining lines, values ahead:

pIC50 | inhibition at 10 µM [%] | Structure (SMILES)
> 6.00 |  | Cc1cc(-n2c(C)nnc2C)ccc1O[C@H]1c2cc(Cl)cc(Cl)c2C[C@@H]1N1CC[C@@H](O)C1 [Example 131, (R)-1-{trans-(1S,2S)-4,6-dichloro-1-[4-(3,5-dimethyl-[1,2,4]triazol-4-yl)-2-methylphenoxy]indan-2-yl}pyrrolidin-3-ol]
5.00 to 6.00 |  | N#Cc1ccc(O[C@H]2c3ccccc3CC[C@@H]2N2CCC[C@H](N)C2)c(Cl)c1 (racemic) [Example 532, 4-[rac-trans-(1,2)-2-((S)-3-aminopiperidin-1-yl)-1,2,3,4-tetrahydronaphthalen-1-yloxy]-3-chlorobenzonitrile]
 | 20 to 50 | Cc1cc(C)c2cccnc2c1O[C@H]1c2ccccc2CC[C@@H]1N1CCC[C@H](N)C1 (racemic) [Example 187, (S)-1-[rac-trans-(1,2)-1-(5,7-dimethylquinolin-8-yloxy)-1,2,3,4-tetrahydronaphthalen-2-yl]piperidin-3-ylamine]
5.00 to 6.00 |  | NC(=O)Nc1cccc(O[C@@H]2c3ccccc3C[C@H]2N2CCC[C@H](N)C2)c1 (racemic) [Example 232, {3-[rac-trans-(1,2)-2-((S)-3-aminopiperidin-1-yl)indan-1-yloxy]phenyl}urea]
> 6.00 |  | CC(=O)Nc1cccc(O[C@H]2c3cc(Cl)cc(Cl)c3C[C@@H]2N2CCC[C@@H](N)C2)c1 [Example 690, N-{3-[trans-(1S,2S)-2-((R)-3-aminopiperidin-1-yl)-4,6-dichloroindan-1-yloxy]phenyl}acetamide]
 | 20 to 50 | Cc1cc(O[C@@H]2c3cc(Cl)cc(F)c3C[C@H]2N2CCC[C@@H](N)C2)ccc1S(=O)(=O)C(F)(F)F (racemic) [Example 92, (R)-1-[rac-trans-(1,2)-6-chloro-4-fluoro-1-(3-methyl-4-trifluoromethanesulfonylphenoxy)indan-2-yl]piperidin-3-ylamine]
> 6.00 |  | N[C@@H]1CCCN([C@H]2CCc3ccccc3[C@@H]2Oc2ccc(F)cc2-c2cc[nH]n2)C1 (racemic) [Example 120, (R)-1-{rac-trans-(1,2)-1-[4-fluoro-2-(1H-pyrazol-3-yl)phenoxy]-1,2,3,4-tetrahydronaphthalen-2-yl}piperidin-3-ylamine]
 | 20 to 50 | Cc1cc(C)c2cccnc2c1O[C@H]1c2ccccc2CC[C@@H]1N1CCC[C@@H](N)C1 (racemic) [Example 78, (R)-1-[rac-trans-(1,2)-1-(5,7-dimethylquinolin-8-yloxy)-1,2,3,4-tetrahydronaphthalen-2-yl]piperidin-3-ylamine]
5.00 to 6.00 |  | NC(=O)c1ccc(O[C@@H]2c3ccccc3C[C@H]2N2CCC[C@@H](N)C2)cc1 (racemic) [Example 525, 4-[rac-trans-(1,2)-2-((R)-3-aminopiperidin-1-yl)indan-1-yloxy]benzamide]
> 6.00 |  | Cc1nnc(C)n1-c1ccc(O[C@H]2c3cc(Cl)ccc3C[C@@H]2N2CCCC2)c(F)c1 [Example 501, 4-[4-(trans-(1S,2S)-6-chloro-2-pyrrolidin-1-ylindan-1-yloxy)-3-fluorophenyl]-3,5-dimethyl-4H-[1,2,4]triazole]
5.00 to 6.00 |  | N[C@@H]1CCCN([C@@H]2Cc3ccccc3[C@H]2Oc2ccc(NC(=O)OCc3ccccc3)cc2)C1 (racemic) [Example 238, {4-[rac-trans-(1,2)-2-((R)-3-aminopiperidin-1-yl)indan-1-yloxy]phenyl}carbamic acid benzyl ester]
> 6.00 |  | CS(=O)(=O)c1ccc(O[C@H]2c3cc(Cl)cc(Cl)c3C[C@@H]2N2CCC3(CCNC3)C2)cc1 (mixture of isomers) [Example 378, 2-[trans-(1S,2S)-4,6-dichloro-1-(4-methanesulfonylphenoxy)indan-2-yl]-2,7-diaza-spiro[4.4]nonane]
> 6.00 |  | O=c1[nH]ccn1-c1ccc(O[C@H]2c3cc(Cl)cc(Cl)c3C[C@@H]2N2CC[C@@H](O)C2)cc1 [Example 325, 1-{4-[(1S,2S)-4,6-dichloro-2-((R)-3-hydroxypyrrolidin-1-yl)indan-1-yloxy]phenyl}-1,3-dihydroimidazol-2-one]
 | 20 to 50 | Cc1ccc(O[C@H]2c3ccccc3CC[C@@H]2N2CCC[C@H](N)C2)cc1Cl (racemic) [Example 161, (S)-1-[rac-trans-(1,2)-1-(3-chloro-4-methylphenoxy)-1,2,3,4-tetrahydronaphthalen-2-yl]piperidin-3-ylamine]
> 6.00 |  | Cc1cc(O[C@H]2c3cc(F)cc(Cl)c3C[C@@H]2N2CCNCC2)ccc1S(C)(=O)=O (racemic) [Example 281, 1-[rac-trans-(1,2)-4-chloro-6-fluoro-1-(4-methanesulfonyl-3-methylphenoxy)indan-2-yl]piperazine]
5.00 to 6.00 |  | CS(=O)(=O)c1ccc(O[C@H]2c3ccccc3CC[C@@H]2N2CCC[C@H](N)C2)cc1 (racemic) [Example 182, (S)-1-[rac-trans-(1,2)-1-(4-methanesulfonylphenoxy)-1,2,3,4-tetrahydronaphthalen-2-yl]piperidin-3-ylamine]
> 6.00 |  | CCCC1(N)CCCN([C@H]2Cc3c(Cl)cc(Cl)cc3[C@@H]2Oc2cccc(NC(C)=O)c2)C1 (mixture of isomers) [Example 693, N-{3-[trans-(1S,2S)-2-(3-amino-3-propylpiperidin-1-yl)-4,6-dichloroindan-1-yloxy]phenyl}acetamide]
 | 20 to 50 | CS(=O)(=O)c1ccc(CO[C@H]2c3cc(Cl)cc(Cl)c3C[C@@H]2N2CC[C@@H](O)C2)c(Cl)c1 [Example 24, (R)-1-[(1S,2S)-4,6-dichloro-1-(2-chloro-4-methanesulfonylbenzyloxy)indan-2-yl]pyrrolidin-3-ol]
